Source: US10814013B2, “Efficient synthesis of chelators for nuclear imaging and radiotherapy: compositions and applications” (The Board of Regents of the University of Texas System, priority 2006, dated 2020)

Experiments:
[1] = In vitro stability of EC-G dissolved in water; format: physicochemical
Procedure: (§1) To further validate EC-G biological activity, in vitro cell culture assays were performed. Briefly, the cellular uptake was determined in tumor cells (50,000 cells/well) incubated with ^99mTc-EC-G (2 μCi/well) at various time intervals. […] There was a 10-15% decrease in cellular uptake using ^99mTc-EC-G after 2-4 weeks. The useful life of EC-G in water appears to be 17.26 days.

[2] = In vivo imaging studies of EC-G; settings: comparison of aqueous and organic synthesized EC-G
[3] = system: tumor cells; assay: Cellular uptake of ^99mTc-EC-G in tumor cells; format: cell-based
Procedure: as §1

[4] = system: New Zealand white rabbit; assay: PET imaging in a New Zealand white rabbit; format: in vivo; settings: PET coronal images 45 minutes after injection of 0.66 mCi
Procedure: The numbers are heart/upper mediastinum (H/UM) count density (count/pixel) ratios at 15-45 minutes. […] A rabbit was administered ^68Ga-EC-trimethyl lysine (EC-TML). PET coronal images were acquired at 45 minutes after injection of 0.66 mCi of ^68Ga-EC-TML (dorsal to ventral order).

[5] = system: human lymphoma cells; assay: [^3H]Thymidine incorporation assay using Re-EC-G and a lymphoma cell line; format: cell-based; settings: in vitro cell culture, dose response curve (FIG. 3)

N,N′-ethylenedicysteine-glucosamine [EC-G]
useful life of EC-G in water [1]: 17.26 days | in vivo imaging, EC-G from aqueous versus organic synthesis [2]: no marked difference | in vitro uptake, aqueous versus organic synthesized EC-G ([3]; comparison of aqueous and organic synthesized EC-G): no marked difference | cellular uptake, raw (unpurified) EC-G versus prep-HPLC purified EC-G ([3]; tumor cells 50,000 cells/well, ^99mTc-EC-G 2 μCi/well, various time intervals (FIG. 4)): no marked difference

^68Ga-EC-trimethyl lysine [^68Ga-EC-TML]
uptake in the heart [4]: High uptake

rhenium-ethylenedicysteine-glucosamine [Re-EC-G]
activity against human lymphoma cells [5]: effective
